Measured values as given in publication PMC6917776, “Discovery of a chemical probe for PRDM9” (Nature Communications, 2019).
“Also recorded” adds a separate entry of the source.

Columns and labels:
[1] = tested on: spermatocytes; experiment: Testis microinjection, meiotic chromosome spreads (SYCP1/SYCP3 staining); format: in vivo, mouse; conditions: wild type mice, 2 µl of 1 µM into both testes at P12, analysed at P15
Protocol: Supplementary Figure 14. Comparison of meiotic progression in the presence of MRK -740-NC and MRK-740 treated spermatocytes. Representative images of meiotic chromosome […]
(c) untreated Prdm9-/- mice are presented. At p12, mice were treated with either MRK -740-NC or MRK-740 or received no treatment. Immunofluoresence co -staining was performed with SYCP1 (green) and SYCP3 (magenta) antibodies to visualize the formation of the synaptonemal […]
mice treated with MRK-740-NC.
(1 picture or pasted object on this page, not shown here) […]
Transgenic mouse lines used in this study
Prdm9KO 2, mice have been described and were maintained on a C57BL/6 background. Mice were housed under standard conditions, were maintained on a 12- hour light/dark cycle, were fed a standard chow diet containing 6% crude fat, and were treated in compliance with the institutional guidelines for animal care and use. All experimental protocols were approved by the Animal Care and Use Committee of Biological Resource Centre at Biopolis, A*STAR, […]
Testis microinjection protocol
Seminiferous tubule microinjection was performed as previously described 3,4. At postnatal day 12 (P12) A small incision was made in the abdomen of the mouse and testes were exposed by pulling the abdominal fat pad. Testis were injected using a micro-capillary pipette injector (made in-house). […]

[2] = tested on: 32 protein, DNA and RNA methyltransferases; experiment: Methyltransferase selectivity assay (whole panel); format: biochemical; conditions: tested at 1 µM and 10 µM of compounds
Protocol: Selectivity against methyltransferases were determined as described previously. Details of the assays are described in the supplementary methods. […]
were tested at (circle) 1 µM and (triangle) 10 µM of compounds. PRDM9 was the only methyltransferase in this panel of MTs that was inhibited by MRK -740.
Effect of both compounds on PRDM7 is presented in figure 1D in the main text. Each experiment was performed at two concentrations (1 and 10 µM) of compounds and in duplicate (n=2). Source data are provided as a Source Data file .
(1 picture or pasted object on this page, not shown here)
Methyltransferase selectivity assay1
The effect of chemical probes and negative controls on the methyltransferase activities of protein, DNA and RNA methyltransferases was tested by radiometric assays using 3H-SAM. For proteins such as MLL1 trimeric, MLL3 pentameric, EZH1 (PRC2) pentameric, and EZH2 (PRC2) trimeric complexes, as well as G9a, GLP, SUV39H1, SUV39H2, SUV420H1, SUV420H2, SETD2, SETD8, SETDB1, SETD7, PRMT1, PRMT3, PRMT4, PRMT5/ MEP50 complex, PRMT6, PRMT7, PRMT8, PRMT9, PRDM9, SMYD2, SMYD3, DNMT1, and BCDIN3D the incorporation of a tritium-labeled methyl group into biotinylated substrate was monitored using scintillation proximity assay (SPA). […] The counts per minute (CPM) was measured on a TopCount plate reader. […]

Compound	Meiotic phenotype of spermatocytes, pachytene stage (in words) [1]	Methyltransferase selectivity (in words) [2]
COc1cc(OC)cc(-c2noc(N3CCN(C)C4(CCN(c5ccccc5)CC4)C3)n2)c1 [MRK-740-NC]	Normal synaptonemal complex formation; also recorded: no overt meiotic defects	no effect on activity of any of 33 MTs
COc1cc(OC)cc(-c2noc(N3CCN(C)C4(CCN(c5ccnc(C)c5)CC4)C3)n2)c1 [MRK-740]	Abnormal synaptonemal complex formation; also recorded: meiotic defects including non-homologous synapsis or failed pairing of chromosomal homologs	selective
